Assay results from patent US7459168B2, “Insecticide transpiration apparatus” (Dainihon Jochugiku Co., Ltd., priority 2002, dated 2008).

Tested on: mosquitos
Assay: Insecticidal effect (knock-down effect) by the open cylinder method
Assay type: in vivo
Details: for Insecticidal effect 15d (relative effectiveness ratio): fifteenth day; for Insecticidal effect 1d (relative effectiveness ratio): first day; for Insecticidal effect 30d (relative effectiveness ratio): thirtieth day
From the text: An insecticide was impregnated in various kinds of raw materials for preparing insecticide impregnated materials. The resulting insecticide-impregnated materials were housed in their respective insecticide cartridges of Example 1 and Comparative Example 1, followed by mounting each of them on an insecticide transpiration apparatus of the present invention. Subsequently, each of them was subjected to a measurement for estimating the transpiring amount of the chemical and a test for estimating insecticide effects on the first, fifteenth and thirtieth days while using the apparatus for twelve hours a day.
A test of insecticidal effect (knock-down effect) was performed by the open cylinder method according to the following procedures.
Procedures for Estimating the Insecticidal Effect of an Insecticidal Compound
Two plastic cylinders of 20 cm in inside diameter and 43 cm in height are piled up. A cylinder of 20 cm both in inside diameter and height is partitioned vertically with a wire net of 16 mesh (the place where the mosquitos are put in), and is placed thereon. A cylinder of 20 cm in inside diameter and height is further placed thereon. This set consisting of the four cylinders is placed on a stand, and an insecticide transpiration apparatus is placed in the middle of the stand to transpire the insecticidal ingredient in the chemical-impregnated material to be examined. Then about 20 mosquitos to be tested are released in the upper stair of the cylinder set and the number of mosquitos knocked down is observed with the time elapsed.
Furthermore, the insecticidal effect was indicated as a relative effectiveness ratio in which an initial turning-over effect obtained by evaporation from a mosquito-repellent mat containing dl, d-cis, trans-allethrin (Pynamin Forte) on condition that a radiator plate of a heating unit is at a temperature of 160° C. The above test was repeated with various kinds of insecticides and the various amounts thereof, various chemical-impregnated materials and various particle sizes thereof, various free-volumes of the insecticide cartridge, various rotational speeds of the motor, respectively.

[1] = cartridge of Comparative Example 1, relative to Pynamin Forte mat
[2] = cartridge of Example 1, relative to Pynamin Forte mat
[3] = cartridge of Example 1, relative to initial effect of dl, d-cis, trans-allethrin (Pynamin Forte) mat at 160° C.

## CC1(C)C(C=C(Cl)C(F)(F)F)C1C(=O)OCc1c(F)c(F)c(F)c(F)c1F (stereo not drawn) [Compound H, 2,3,4,5,6-pentafluorobenzyl-2,2-dimethyl-3-(2-chloro-2-trifluoromethylvinyl)cyclopropane carboxylate]
[1]
  Insecticidal effect 15d (relative effectiveness ratio): 1.7
  Insecticidal effect 1d (relative effectiveness ratio): 1.9
  Insecticidal effect 30d (relative effectiveness ratio): 1.7
[2]
  Insecticidal effect 15d (relative effectiveness ratio): 2.3
  Insecticidal effect 30d (relative effectiveness ratio): 2.3
[3]
  Insecticidal effect 1d (relative effectiveness ratio): 2.4

## CC(C)=CC1C(C(=O)OCc2c(F)c(F)c(C)c(F)c2F)C1(C)C (stereo not drawn) [Compound C, 4-methyl-2,3,5,6-tetrafluorobenzyl-chrysanthemate]
[1]
  Insecticidal effect 15d (relative effectiveness ratio): 1.7
  Insecticidal effect 1d (relative effectiveness ratio): 1.8
  Insecticidal effect 30d (relative effectiveness ratio): 1.6
[2]
  Insecticidal effect 15d (relative effectiveness ratio): 2.2
  Insecticidal effect 30d (relative effectiveness ratio): 2.2
[3]
  Insecticidal effect 1d (relative effectiveness ratio): 2.3

## CC(C)=CC1C(C(=O)OCc2c(F)c(F)cc(F)c2F)C1(C)C (stereo not drawn) [Compound A, 2,3,5,6-tetrafluorobenzyl-chrysanthemate]
[1]
  Insecticidal effect 15d (relative effectiveness ratio): 3.3
  Insecticidal effect 1d (relative effectiveness ratio): 3.4
  Insecticidal effect 30d (relative effectiveness ratio): 3.3
[2]
  Insecticidal effect 15d (relative effectiveness ratio): 3.8
  Insecticidal effect 30d (relative effectiveness ratio): 3.8
[3]
  Insecticidal effect 1d (relative effectiveness ratio): 3.9

## COCc1c(F)c(F)c(COC(=O)C2C(C=C(C)C)C2(C)C)c(F)c1F (stereo not drawn) [Compound F, 4-methoxymethyl-2,3,5,6-tetrafluorobenzyl-chrysanthemate]
[1]
  Insecticidal effect 15d (relative effectiveness ratio): 1.7
  Insecticidal effect 1d (relative effectiveness ratio): 1.9
  Insecticidal effect 30d (relative effectiveness ratio): 1.5
[2]
  Insecticidal effect 15d (relative effectiveness ratio): 2.5
  Insecticidal effect 30d (relative effectiveness ratio): 2.5
[3]
  Insecticidal effect 1d (relative effectiveness ratio): 2.6

## CC=CC1C(C(=O)OCc2c(F)c(F)c(COC)c(F)c2F)C1(C)C (stereo not drawn) [Compound G, 4-methoxymethyl-2,3,5,6-tetrafluorobenzyl-2,2-dimethyl-3-(1-propenyl)cyclopropane carboxylate]
[1]
  Insecticidal effect 15d (relative effectiveness ratio): 2.8
  Insecticidal effect 1d (relative effectiveness ratio): 2.9
  Insecticidal effect 30d (relative effectiveness ratio): 2.8
[2]
  Insecticidal effect 15d (relative effectiveness ratio): 3.4
  Insecticidal effect 30d (relative effectiveness ratio): 3.4
[3]
  Insecticidal effect 1d (relative effectiveness ratio): 3.4

## Cc1c(F)c(F)c(COC(=O)C2C(C=C(F)F)C2(C)C)c(F)c1F (stereo not drawn) [Compound E, 4-methyl-2,3,5,6-tetrafluorobenzyl-2,2-dimethyl-3-(2,2-difluorovinyl)cyclopropane carboxylate]
[1]
  Insecticidal effect 15d (relative effectiveness ratio): 2.3
  Insecticidal effect 1d (relative effectiveness ratio): 2.4
  Insecticidal effect 30d (relative effectiveness ratio): 2.3
[2]
  Insecticidal effect 15d (relative effectiveness ratio): 2.8
  Insecticidal effect 30d (relative effectiveness ratio): 2.8
[3]
  Insecticidal effect 1d (relative effectiveness ratio): 2.9

## C#CCc1c(F)c(F)c(COC(=O)C2C(C=CC)C2(C)C)c(F)c1F (stereo not drawn) [Compound I, 4-propargyl-2,3,5,6-tetrafluorobenzyl-3-(1-propenyl)-2,2-dimethylcyclopropane carboxylate]
[1]
  Insecticidal effect 15d (relative effectiveness ratio): 2.5
  Insecticidal effect 1d (relative effectiveness ratio): 2.6
  Insecticidal effect 30d (relative effectiveness ratio): 2.4
[2]
  Insecticidal effect 15d (relative effectiveness ratio): 2.9
  Insecticidal effect 30d (relative effectiveness ratio): 2.9
[3]
  Insecticidal effect 1d (relative effectiveness ratio): 3.0

## CC=CC1C(C(=O)OCc2c(F)c(F)cc(F)c2F)C1(C)C (stereo not drawn) [Compound B, 2,3,5,6-tetrafluorobenzyl-2,2-dimethyl-3-(1-propenyl) cyclopropane carboxylate]
[1]
  Insecticidal effect 15d (relative effectiveness ratio): 2.1
  Insecticidal effect 1d (relative effectiveness ratio): 2.2
  Insecticidal effect 30d (relative effectiveness ratio): 2.0
[2]
  Insecticidal effect 15d (relative effectiveness ratio): 2.7
  Insecticidal effect 30d (relative effectiveness ratio): 2.7
[3]
  Insecticidal effect 1d (relative effectiveness ratio): 2.8

## COCc1c(F)c(F)c(COC(=O)C2C(C)(C)C2(C)C)c(F)c1F [Compound J, 4-methoxymethyl-2,3,5,6-tetrafluorobenzyl-2,2,3,3-tetramethylcyclopropane carboxylate]
[1]
  Insecticidal effect 15d (relative effectiveness ratio): 2.4
  Insecticidal effect 1d (relative effectiveness ratio): 2.5
  Insecticidal effect 30d (relative effectiveness ratio): 2.4
[2]
  Insecticidal effect 15d (relative effectiveness ratio): 2.8
  Insecticidal effect 30d (relative effectiveness ratio): 2.8
[3]
  Insecticidal effect 1d (relative effectiveness ratio): 2.9

## C#CCc1c(F)c(F)c(COC(=O)C2C(C)(C)C2(C)C)c(F)c1F [Compound K, 4-propargyl-2,3,5,6-tetrafluorobenzyl-2,2,3,3-tetramethyl cyclopropane carboxylate]
[1]
  Insecticidal effect 15d (relative effectiveness ratio): 2.2
  Insecticidal effect 1d (relative effectiveness ratio): 2.3
  Insecticidal effect 30d (relative effectiveness ratio): 2.1
[2]
  Insecticidal effect 15d (relative effectiveness ratio): 2.7
  Insecticidal effect 30d (relative effectiveness ratio): 2.7
[3]
  Insecticidal effect 1d (relative effectiveness ratio): 2.8

## CC=CC1C(C(=O)OCc2c(F)c(F)c(C)c(F)c2F)C1(C)C (stereo not drawn) [Compound D, 4-methyl-2,3,5,6-tetrafluorobenzyl-2,2-dimethyl-3-(1-propenyl)cyclopropane carboxylate]
[1]
  Insecticidal effect 15d (relative effectiveness ratio): 2.7
  Insecticidal effect 1d (relative effectiveness ratio): 2.8
  Insecticidal effect 30d (relative effectiveness ratio): 2.6
[2]
  Insecticidal effect 15d (relative effectiveness ratio): 3.2
  Insecticidal effect 30d (relative effectiveness ratio): 3.1
[3]
  Insecticidal effect 1d (relative effectiveness ratio): 3.2
